This is an account of results in US9242996B2 (Novartis AG, priority 2013, dated 2016).

The structures appear in SMILES notation.

Chain of activated ERK2 (P28482 whole entry): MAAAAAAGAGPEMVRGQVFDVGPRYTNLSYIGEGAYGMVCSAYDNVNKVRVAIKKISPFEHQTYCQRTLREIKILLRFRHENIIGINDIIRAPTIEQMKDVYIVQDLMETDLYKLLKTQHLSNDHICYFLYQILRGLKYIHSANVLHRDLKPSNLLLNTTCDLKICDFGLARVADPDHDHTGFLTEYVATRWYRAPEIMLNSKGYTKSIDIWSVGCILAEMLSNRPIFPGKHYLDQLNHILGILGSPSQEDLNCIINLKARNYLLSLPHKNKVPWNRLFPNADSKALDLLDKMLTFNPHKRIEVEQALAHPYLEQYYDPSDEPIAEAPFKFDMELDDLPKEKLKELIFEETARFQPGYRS

The assay concerns the target activated ERK2 (Homo sapiens (Human), UniProt P28482). Kind of assay: Activated ERK2 kinase assay, ERK2 New conditions (AlphaScreen, ERKtide phosphorylation). Type of assay: biochemical. The note with it: 0.25 nM ERK2, 200 nM ERKtide peptide, 35 μM ATP, 30 min preincubation. In short, it runs like this:
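Read-out is AlphaScreen with anti-phospho-EGFR (Thr669) antibody after EDTA quench and overnight dark incubation. Reaction: 0.25 nM ERK2, 30 min compound preincubation, then 200 nM ERKtide plus 35 µM ATP for 2–3 h at ambient temperature, pH 7.5. IC50 by four-parameter fit.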
For orientation: Alpha assays give light when donor and acceptor beads are brought close together.
On to `Nc1ncc([C@@H]2CNC(=O)C2)cc1-c1ccc(C(=O)N[C@H](CO)c2ccccc2)c(F)c1` [Example 219, 4-(2-amino-5-((R)-5-oxopyrrolidin-3-yl)pyridin-3-yl)-2-fluoro-N—((S)-2-hydroxy-1-phenylethyl)benzamide], for which the IC50 (usually the concentration needed to halve the response being measured) worked out at 32.7 nM.

Turning to `Nc1ncc([C@H]2CNC(=O)C2)cc1-c1ccc(C(=O)N[C@H](CO)c2ccccc2)c(F)c1` [Example 220, 4-(2-amino-5-((S)-5-oxopyrrolidin-3-yl)pyridin-3-yl)-2-fluoro-N—((S)-2-hydroxy-1-phenylethyl)benzamide], the IC50 was found to be 72.3 nM.

Take `COC(=O)[C@@H]1C[C@H](c2cnc(N)c(-c3ccc(C(=O)N[C@H](CO)c4cccc(Cl)c4)c(F)c3)c2)CN1` [Example 221, (2S,4R)-methyl 4-(6-amino-5-(4-(((S)-1-(3-chlorophenyl)-2-hydroxyethyl)carbamoyl)-3-fluorophenyl)pyridin-3-yl)pyrrolidine-2-carboxylate]: half-maximal inhibition (IC50) required 30.6 nM.

In turn, `Nc1ncc([C@@H]2CN[C@H](C(=O)O)C2)cc1-c1ccc(C(=O)N[C@H](CO)c2cccc(Cl)c2)c(F)c1` [Example 222, (2S,4R)-4-(6-amino-5-(4-(((S)-1-(3-chlorophenyl)-2-hydroxyethyl)carbamoyl)-3-fluorophenyl)pyridin-3-yl)pyrrolidine-2-carboxylic acid] displayed an IC50 of 24.8 nM.

For the molecule `COC(=O)[C@@H]1C[C@H](c2cnc(N)c(-c3ccc(C(=O)N[C@H](CO)c4cccc(Cl)c4)c(F)c3)c2)CN1` [Example 223, (2S,4R)-methyl 4-(6-amino-5-(4-(((S)-1-(3-chlorophenyl)-2-hydroxyethyl)carbamoyl)-3-fluorophenyl)pyridin-3-yl)pyrrolidine-2-carboxylate], the IC50 worked out at 10.4 nM.

As for `Nc1ncc(C2COC2)nc1-c1ccc(C(=O)N[C@H](CO)c2ccccc2)c(F)c1` [Example 224, (S)-4-(3-amino-6-(oxetan-3-yl)pyrazin-2-yl)-2-fluoro-N-(2-hydroxy-1-phenylethyl)benzamide], the half-maximal inhibitory concentration (IC50) came to 18.8 nM.

`Cn1nccc1-c1cnc(N)c(-c2ccc(C(=O)N[C@H](CO)c3cccc(F)c3)c(F)c2)c1` [Example 229, (S)-4-(2-amino-5-(1-methyl-1H-pyrazol-5-yl)pyridin-3-yl)-2-fluoro-N-(1-(3-fluorophenyl)-2-hydroxyethyl) benzamide] registered a half-inhibitory concentration (IC50) of 1.07 nM.

In turn, `Cn1nccc1-c1cnc(N)c(-c2ccc(C(=O)N[C@H](CO)c3cccc(S(C)(=O)=O)c3)c(F)c2)c1` [Example 230, (S)-4-(2-amino-5-(1-methyl-1H-pyrazol-5-yl)pyridin-3-yl)-2-fluoro-N-(2-hydroxy-1-(3-(methylsulfonyl)phenyl)ethyl) benzamide] yielded a half-maximal inhibitory concentration (IC50) of 0.899 nM.

In turn, `Cc1cccc([C@@H](CO)NC(=O)c2ccc(-c3cc(-c4ccnn4C)cnc3N)cc2F)c1` [Example 231, (S)-4-(2-amino-5-(1-methyl-1H-pyrazol-5-yl)pyridin-3-yl)-2-fluoro-N-(2-hydroxy-1-(m-tolyl)ethyl) benzamide] registered an IC50 of 0.217 nM. Compared with the last molecule, the IC50 is about 4.1-fold lower.

`Cn1nccc1-c1cnc(N)c(-c2ccc(C(=O)N[C@H](CO)c3cc(F)cc(Cl)c3)c(F)c2)c1` [Example 232, (S)-4-(2-amino-5-(1-methyl-1H-pyrazol-5-yl)pyridin-3-yl)-N-(1-(3-chloro-5-fluorophenyl)-2-hydroxyethyl)-2-fluorobenzamide] returned a half-maximal inhibitory concentration (IC50) of 0.257 nM. This IC50 and that of the molecule before are within 1.5-fold of each other.

`Cn1cncc1-c1cnc(N)c(-c2ccc(C(=O)N[C@H](CO)c3cccc(F)c3)c(F)c2)c1` [Example 234, (S)-4-(2-amino-5-(1-methyl-1H-imidazol-5-yl)pyridin-3-yl)-2-fluoro-N-(1-(3-fluorophenyl)-2-hydroxyethyl) benzamide] came in with an IC50 of 1.47 nM. Compared with the last molecule, the IC50 is about 5.7-fold higher.

`Cn1cncc1-c1cnc(N)c(-c2ccc(C(=O)N[C@H](CO)c3cccc(Cl)c3)c(F)c2)c1` [Example 235, (S)-4-(2-amino-5-(1-methyl-1H-imidazol-5-yl)pyridin-3-yl)-N-(1-(3-chlorophenyl)-2-hydroxyethyl)-2-fluorobenzamide] returned an IC50 of 0.326 nM.

As to `Cn1cc(-c2cnc(N)c(-c3ccc(C(=O)NCc4cccc(Cl)n4)c(F)c3)c2)cn1` [Example 236, 4-(2-amino-5-(1-methyl-1H-pyrazol-4-yl)pyridin-3-yl)-N-((6-chloropyridin-2-yl)methyl)-2-fluorobenzamide], the half-inhibitory concentration (IC50) stood at 56.6 nM.

As for `Cn1cc(CNC(=O)c2ccc(-c3cc(-c4cnn(C)c4)cnc3N)cc2F)cn1` [Example 237, 4-(2-amino-5-(1-methyl-1H-pyrazol-4-yl)pyridin-3-yl)-2-fluoro-N-((1-methyl-1H-pyrazol-4-yl)methyl) benzamide], it took 2610 nM to reach half-maximal inhibition (IC50).

In the case of `Cn1cc(-c2cnc(N)c(-c3ccc(C(=O)NCc4nccs4)c(F)c3)c2)cn1` [Example 238, 4-(2-amino-5-(1-methyl-1H-pyrazol-4-yl)pyridin-3-yl)-2-fluoro-N-(thiazol-2-ylmethyl) benzamide], inhibition was half-maximal at 352 nM (IC50).

Turning to `Cn1cc(-c2cnc(N)c(-c3ccc(C(=O)NCc4ccsc4)c(F)c3)c2)cn1` [Example 239, 4-(2-amino-5-(1-methyl-1H-pyrazol-4-yl)pyridin-3-yl)-2-fluoro-N-(thiophen-3-ylmethyl) benzamide], the IC50 was 28.5 nM.

Regarding `Cn1cc(-c2cnc(N)c(-c3ccc(C(=O)NCc4cccc(C(F)F)c4)c(F)c3)c2)cn1` [Example 245, 4-(2-amino-5-(1-methyl-1H-pyrazol-4-yl)pyridin-3-yl)-N-(3-(difluoromethyl)benzyl)-2-fluorobenzamide], it took 2.67 nM to reach half-maximal inhibition (IC50).

In the case of `Cn1cc(-c2cnc(N)c(-c3ccc(C(=O)NCc4cccc(Br)c4)c(F)c3)c2)cn1` [Example 246, 4-(2-amino-5-(1-methyl-1H-pyrazol-4-yl)pyridin-3-yl)-N-(3-bromobenzyl)-2-fluorobenzamide], the IC50 stood at 1.52 nM.

Turning to `Cc1c(-c2cnc(N)c(-c3ccc(C(=O)N[C@H](CO)c4ccccc4)c(F)c3)n2)cnn1C` [Example 247, (S)-4-(3-amino-6-(1,5-dimethyl-1H-pyrazol-4-yl)pyrazin-2-yl)-2-fluoro-N-(2-hydroxy-1-phenylethyl) benzamide], half-maximal inhibition (IC50) was put at 0.73 nM.

For the molecule `Nc1ncc(C2CC2)nc1-c1ccc(C(=O)N[C@H](CO)c2ccccc2)c(F)c1` [Example 251, (S)-4-(3-amino-6-cyclo-propylpyrazin-2-yl)-2-fluoro-N-(2-hydroxy-1-phenylethyl) benzamide], it took 7.04 nM to reach half-maximal inhibition (IC50).

In the case of `NC[C@@H](NC(=O)c1ccc(-c2nc(C3CC3)cnc2N)cc1F)c1ccccc1` [Example 252, (S)-N-(2-amino-1-phenylethyl)-4-(3-amino-6-cyclo-propylpyrazin-2-yl)-2-fluorobenzamide], half-maximal inhibition (IC50) was put at 2.6 nM.

In turn, `Nc1ncc(-c2cn[nH]c2)nc1-c1ccc(C(=O)N[C@H](CO)c2ccccc2)c(F)c1` [Example 268, (S)-4-(3-amino-6-(1H-pyrazol-4-yl)pyrazin-2-yl)-2-fluoro-N-(2-hydroxy-1-phenylethyl) benzamide] had an IC50 of 4.8 nM.

Turning to `Cc1cc(-c2cc(-c3cnn(C)c3)cnc2N)ccc1C(=O)N[C@H](CO)c1ccccc1` [Example 269, (S)-4-(2-amino-5-(1-methyl-1H-pyrazol-4-yl)pyridin-3-yl)-N-(2-hydroxy-1-phenylethyl)-2-methylbenzamide], the IC50 worked out at 1.08 nM. This IC50 is about 4.4-fold lower than that of the molecule before.
